Measured values from patent US6737383B1, “Herbicidal oxadiazolidines” (priority 1999, dated 2004).

Assays:
duck salad = test: Test B flood test duck salad; type: in vivo, Heteranthera limosa
Method in brief: (§1)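 Read-out is a visual response score from 0 (no effect) to 10 (complete control), assigned by comparison with untreated controls. Treatment was applied at the 2-leaf stage, and plants stayed in the greenhouse for twelve to sixteen days before scoring.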

blackgrass = test: Test B pre/postemergence blackgrass; type: in vivo, Alopecurus myosuroides
Method in brief: (§2)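 Test chemicals in a non-phytotoxic solvent mixture with surfactant were sprayed preemergence onto planted seeds and postemergence onto plants 2 to 18 cm tall (1- to 4-leaf stage). After twelve to sixteen days in a greenhouse, injury was visually rated against untreated controls from 0 (no effect) to 10 (complete control).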

wheat = test: Test B pre/postemergence wheat; type: in vivo, Triticum aestivum
Method in brief: as §2

soybean = test: Test B pre/postemergence soybean; type: in vivo, Glycine max
Method in brief: as §2

velvetleaf = test: Test B pre/postemergence velvetleaf; type: in vivo, Abutilon theophrasti
Method in brief: as §2

purple nutsedge = test: Test B pre/postemergence purple nutsedge; type: in vivo, Cyperus rotundus
Method in brief: as §2

crabgrass = test: Test B pre/postemergence crabgrass; type: in vivo, Digitaria sanguinalis
Method in brief: as §2

pigweed = test: Test B pre/postemergence pigweed; type: in vivo, Amaranthus retroflexus
Method in brief: as §2

smallflower flatsedge = test: Test B flood test smallflower flatsedge; type: in vivo, Cyperus difformis
Method in brief: as §1

sugar beet = test: Test B pre/postemergence sugar beet; type: in vivo, Beta vulgaris
Method in brief: as §2

bedstraw = test: Test B pre/postemergence bedstraw; type: in vivo, Galium aparine
Method in brief: as §2

wild oat = test: Test B pre/postemergence wild oat; type: in vivo, Avena fatua
Method in brief: as §2

corn = test: Test B pre/postemergence corn; type: in vivo, Zea mays
Method in brief: as §2

surinam grass = test: Test B pre/postemergence surinam grass; type: in vivo, Brachiaria decumbens
Method in brief: as §2

rape = test: Test B pre/postemergence rape; type: in vivo, Brassica napus
Method in brief: as §2

rice = test: Test B flood test rice; type: in vivo, Oryza sativa
Method in brief: as §1

[1] = Rate 62 g/ha, headed Pre-emergence (flood test species), scale 0 to 10 (0 no effect, 10 complete control)
[2] = Rate 125 g/ha, Pre-emergence, flood test species, scale 0 to 10 where 0 is no effect and 10 is complete control
[3] = Rate 250 g/ha, Pre-emergence, flood-test species, scale 0 to 10, 0 is no effect, 10 is complete control
[4] = Rate 500 g/ha, Pre-emergence, flood test species, scale 0 to 10 (0 no effect, 10 complete control)
[5] = Preemergence, Rate 62 g/ha, scale of 0 to 10 where 0 is no effect and 10 is complete control
[6] = Preemergence, Rate 250 g/ha, scale of 0 to 10 where 0 is no effect and 10 is complete control
[7] = Preemergence, Rate 500 g/ha, scale of 0 to 10 where 0 is no effect and 10 is complete control
[8] = Rate 62 g/ha, Postemergence, scale of 0 to 10 where 0 is no effect and 10 is complete control
[9] = Rate 125 g/ha, Postemergence, scale 0 to 10
[10] = Rate 125 g/ha, Preemergence, scale of 0 to 10 where 0 is no effect and 10 is complete control
[11] = Rate 500 g/ha, Postemergence, scale 0 to 10, 0 no effect, 10 complete control

CC(C)N(C(=O)n1oc(=O)n(C2CC2)c1=O)c1ccccc1 [Compound 243]
Ducksalad plant response rating (duck salad; [1]): 0
Ducksalad plant response rating (duck salad; [2]): 0
Ducksalad plant response rating (duck salad; [3]): 0
Ducksalad plant response rating (duck salad; [4]): 0
Blackgrass plant response rating (blackgrass; [5]): 8
Blackgrass plant response rating (blackgrass; [6]): 10
Plant response rating, Blackgrass (blackgrass; [7]): 10
Blackgrass plant response rating (blackgrass; [8]): 7
Blackgrass plant response rating (blackgrass; [9]): 8
Blackgrass plant response rating (blackgrass; [10]): 10
Plant response rating (0 to 10; 0 is no effect, 10 is complete control), Blackgrass (blackgrass; Rate 250 g/ha, Postemergence): 9
Blackgrass plant response rating (blackgrass; [11]): 9
Wheat plant response rating (wheat; [5]): 5
Wheat plant response rating (wheat; [6]): 8
Plant response rating, Wheat (wheat; [7]): 9
Wheat plant response rating (wheat; [8]): 2
Wheat plant response rating (wheat; [10]): 8
Wheat plant response rating (wheat; [11]): 8
Soybean plant response rating (soybean; [5]): 0
Soybean plant response rating (soybean; [6]): 8
Plant response rating, Soybean (soybean; [7]): 9
Soybean plant response rating (soybean; [8]): 3
Soybean plant response rating (soybean; [10]): 0
Soybean plant response rating (soybean; [11]): 8
Velvetleaf plant response rating (velvetleaf; [5]): 4
Velvetleaf plant response rating (velvetleaf; [6]): 10
Plant response rating, Velvetleaf (velvetleaf; [7]): 10
Velvetleaf plant response rating (velvetleaf; [8]): 0
Velvetleaf plant response rating (velvetleaf; [10]): 6
Velvetleaf plant response rating (velvetleaf; [11]): 7
Nutsedge plant response rating (purple nutsedge; [5]): 0
Nutsedge plant response rating (purple nutsedge; [6]): 0
Nutsedge plant response rating (purple nutsedge; [8]): 0
Nutsedge plant response rating (purple nutsedge; [10]): 0
Nutsedge plant response rating (purple nutsedge; [11]): 7
Crabgrass plant response rating (crabgrass; [5]): 7
Crabgrass plant response rating (crabgrass; [6]): 9
Plant response rating, Crabgrass (crabgrass; [7]): 10
Crabgrass plant response rating (crabgrass; [8]): 3
Crabgrass plant response rating (crabgrass; [10]): 8
Plant response rating (0 to 10; 0 is no effect, 10 is complete control), Crabgrass (crabgrass; Rate 250 g/ha, Postemergence): 9
Crabgrass plant response rating (crabgrass; [11]): 9
Redroot pigweed plant response rating (pigweed; [5]): 6
Redroot pigweed plant response rating (pigweed; [6]): 10
Plant response rating, Redroot pigweed (pigweed; [7]): 10
Redroot pigweed plant response rating (pigweed; [8]): 2
Redroot pigweed plant response rating (pigweed; [10]): 9
Plant response rating (0 to 10; 0 is no effect, 10 is complete control), Redroot pigweed (pigweed; Rate 250 g/ha, Postemergence): 7
Redroot pigweed plant response rating (pigweed; [11]): 7
S. Flatsedge plant response rating (smallflower flatsedge; [1]): 0
S. Flatsedge plant response rating (smallflower flatsedge; [2]): 0
S. Flatsedge plant response rating (smallflower flatsedge; [3]): 0
S. Flatsedge plant response rating (smallflower flatsedge; [4]): 0
Sugarbeets plant response rating (sugar beet; [5]): 2
Sugarbeets plant response rating (sugar beet; [6]): 7
Plant response rating, Sugarbeets (sugar beet; [7]): 10
Sugarbeets plant response rating (sugar beet; [8]): 0
Sugarbeets plant response rating (sugar beet; [10]): 3
Sugarbeets plant response rating (sugar beet; [11]): 5
Bedstraw plant response rating (bedstraw; [5]): 0
Bedstraw plant response rating (bedstraw; [6]): 5
Plant response rating, Bedstraw (bedstraw; [7]): 9
Bedstraw plant response rating (bedstraw; [8]): 0
Bedstraw plant response rating (bedstraw; [9]): 4
Bedstraw plant response rating (bedstraw; [10]): 0
Plant response rating (0 to 10; 0 is no effect, 10 is complete control), Bedstraw (bedstraw; Rate 250 g/ha, Postemergence): 5
Bedstraw plant response rating (bedstraw; [11]): 5
Wild oats plant response rating (wild oat; [5]): 3
Wild oats plant response rating (wild oat; [6]): 9
Plant response rating, Wild oats (wild oat; [7]): 9
Wild oats plant response rating (wild oat; [8]): 0
Wild oats plant response rating (wild oat; [10]): 6
Wild oats plant response rating (wild oat; [11]): 4
Corn plant response rating (corn; [5]): 2
Corn plant response rating (corn; [6]): 6
Plant response rating, Corn (corn; [7]): 9
Corn plant response rating (corn; [8]): 0
Corn plant response rating (corn; [9]): 2
Corn plant response rating (corn; [10]): 3
Plant response rating (0 to 10; 0 is no effect, 10 is complete control), Corn (corn; Rate 250 g/ha, Postemergence): 5
Corn plant response rating (corn; [11]): 7
B. signalgrass plant response rating (surinam grass; [5]): 4
B. signalgrass plant response rating (surinam grass; [6]): 7
Plant response rating, B. signalgrass (surinam grass; [7]): 10
B. signalgrass plant response rating (surinam grass; [8]): 0
B. signalgrass plant response rating (surinam grass; Rate 125 g/ha, Postemergence, scale 0 (no effect) to 10 (complete control)): 4
B. signalgrass plant response rating (surinam grass; [10]): 5
Plant response rating (0 to 10; 0 is no effect, 10 is complete control), B. signalgrass (surinam grass; Rate 250 g/ha, Postemergence): 9
B. signalgrass plant response rating (surinam grass; [11]): 9
Rape plant response rating (rape; [5]): 0
Rape plant response rating (rape; [6]): 9
Plant response rating, Rape (rape; [7]): 10
Rape plant response rating (rape; [8]): 0
Rape plant response rating (rape; [10]): 5
Plant response rating (0 to 10; 0 is no effect, 10 is complete control), Rape (rape; Rate 250 g/ha, Postemergence): 2
Rape plant response rating (rape; [11]): 3
Rice plant response rating (rice; [1]): 0
Rice plant response rating (rice; [2]): 0
Rice plant response rating (rice; [3]): 0
Rice plant response rating (rice; [4]): 0
